Measurements from patent US4985447A, “Certain benzoquinones, naphthoquinones and derivatives thereof which exhibit thromboxane A2 synthetase inhibition or receptor antagonism and the like” (Takeda Chemical Industries, Ltd., priority 1986, dated 1991).

Key:
[1] = Effect on cerebral ischemic seizure in spontaneously hypertensive rat; format: in vivo; conditions: orally at 30 mg/kg
Procedure: Procedure: A spontaneously hypertensive rat (male, 20-23 weeks old) was given orally a compound or water at the dose of 5 ml/kg, and 1 hour later anesthetized with pentobarbital. Bilateral common carotid arteries were ligated, and the interval from immediately after the ligation to the occurrence of seizure (cramp, jumping, etc.) was measured.

[2] = Effect on occurrence of ventricular arrhythmia due to ischemia-reperfusion in rat; format: in vivo, rat (Sprague-Dawley); conditions: 30 mg/kg, p.o., rats showing abnormal function/rats used, during 10 minutes of reperfusion; for Incidence of ventricular fibrillation: **p<0.01 (X^2 test); for Incidence of cardiac arrest / Incidence of ventricular tachycardia: *p<0.05 (X^2 test)
Procedure: Procedure: The experiment was carried out in Sprague-Dawley rat (male, 11-12 weeks old) according to the method of A. S. Manning (Circ. Res. 55, 545, 1984). A rat was given orally a drug or water at the dose of 5 ml/kg, and anesthetized 1 hour later with pentobarbital (50 mg/kg, intraperitoneal injection). The rat was thoractomized under artificial respiration and the coronary left anterior descending artery was ligated for 5 minutes, followed by reperfusion for 10 minutes. The incidences of ventricular tachycardia, ventricular fibrillation and cardiac arrest observed for the 10 minutes of reperfusion were determined.

[3] = biological target: T1, Thromboxane A2 (TXA2) synthetase (Equus caballus, UniProt A0A9L0T8T9); test: Inhibition of Thromboxane A2 (TXA2) synthetase (horse platelet microsome); format: biochemical; conditions: read-out: Inhibition of Thromboxane A2 (TXA2) synthetase; for inhibition at 1 µM: 10^-6 M; for inhibition at 0.1 µM: 10^-7 M
T1 sequence (A0A9L0T8T9 2-534): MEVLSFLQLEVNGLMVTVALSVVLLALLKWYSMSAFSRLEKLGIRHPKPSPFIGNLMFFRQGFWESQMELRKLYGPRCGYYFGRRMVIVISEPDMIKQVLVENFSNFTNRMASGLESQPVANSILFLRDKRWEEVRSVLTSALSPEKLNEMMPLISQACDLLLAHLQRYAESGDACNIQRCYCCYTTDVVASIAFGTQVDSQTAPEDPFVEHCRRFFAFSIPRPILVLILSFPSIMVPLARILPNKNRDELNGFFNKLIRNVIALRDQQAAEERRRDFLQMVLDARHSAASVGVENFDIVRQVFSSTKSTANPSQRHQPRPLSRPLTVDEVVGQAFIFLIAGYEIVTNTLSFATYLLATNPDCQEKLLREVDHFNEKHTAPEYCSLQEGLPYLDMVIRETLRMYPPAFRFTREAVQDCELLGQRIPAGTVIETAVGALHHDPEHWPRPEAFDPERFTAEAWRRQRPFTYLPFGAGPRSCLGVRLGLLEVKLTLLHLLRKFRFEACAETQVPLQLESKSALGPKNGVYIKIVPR
Procedure: Inhibition of Thromboxane A2 (TXA2) synthetase
(§1) As a preparation of TXA2 synthetase, horse platelet microsome treated with indomethacin (indomethacin-treated horse platelet microsome: IPM) according to the method of Needleman et al. (Science 193 163, 1979) was used. To 60 μl of the solution of IPM in 50 mM Tris buffer(pH 7.5) (containing 140 μg on the protein basis), 60μof a solution containing a drug at a variable concentration was added and kept still at room temperature for 5 minutes. One hundred μl of this mixture was taken, to which 20 μl of a buffer containing 30 ng cf prostaglandin H2 (PGH2) with ice-cooling and kept still at 0° C. for 5 minutes to produce thromboxane A2 (TXA2). The reaction was stopped by addition of 500 μl of Tris buffer, and 50 μl of the resultant solution was subjected to radioimmunoassay of thromboxane B2 (TXB2), a stable metabolite of TXA2 [Shibouta et al. Biochem. Pharmacol. 28 3601, 1979]. The rate of inhibition (%) of TXA2 synthetase was determined from the difference in TXB2 productivity between the untreated group and the treated group.
as §1, with “60 μl of” for “60μof”, “of” for “cf”

[4] = biological target: T2, Thromboxane A2 (TXA2) receptor (Oryctolagus cuniculus, UniProt Q6WQI8); test: Thromboxane A2 (TXA2) receptor antagonism (rabbit aorta strip contraction by U-46619); conditions: for Inhibition of contraction of rabbit aorta strip due to U-46619: U-46619 10^-7 M, mean ± standard error, 6 cases
T2 construct: contraction by U-46619
T2 sequence (Q6WQI8 1-233): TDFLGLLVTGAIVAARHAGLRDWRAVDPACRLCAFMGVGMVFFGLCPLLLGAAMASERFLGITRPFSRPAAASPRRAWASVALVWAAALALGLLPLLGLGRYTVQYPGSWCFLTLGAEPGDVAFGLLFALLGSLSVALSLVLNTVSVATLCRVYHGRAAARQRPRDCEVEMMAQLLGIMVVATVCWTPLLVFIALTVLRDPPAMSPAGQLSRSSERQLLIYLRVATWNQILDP
Procedure: Thromboxane A2 (TXA2) receptor antagonism
Procedure: A spiral strip of the rabbit aorta (2-3 mm wide, about 3 cm long) was suspended in Krebs-Henseleit solution under the load of 2 g. The Krebs-Henseleit solution was saturated with a mixed gas of 95% O2 -5% CO2 and warmed at 37° C. Inhibition of the contraction of the vascular strip caused by a TXA2 mimic substance, U-46619* (10^-7 M), by pretreatment with Compound No.13 30 minutes before was studied.

CC1=C(C)C(=O)C(C(C)c2cccnc2)=C(C)C1=O (centres unmarked) [Compound No. 1, 3,5,6-trimethyl-2-[1-(3-pyridyl)ethyl]-1,4-benzoquinone]
Interval to the occurrence of cerebral ischemic seizure (in words) [1]: prolonged remarkably the interval to the occurrence of cerebral ischemic seizure
protective effect against cerebral ischemia (in words) [1]: exerts protective effects against cerebral ischemia
Incidence of ventricular fibrillation [2]: 3/8
Incidence of ventricular fibrillation ([2]; listed as Compound No.1): inhibited significantly
Incidence of cardiac arrest [2]: 1/8
Incidence of ventricular tachycardia [2]: 6/8
Incidence of cardiac arrest ([2]; listed as Compound No.1): inhibited significantly
Incidence of ventricular tachycardia ([2]; listed as Compound No.1): inhibited significantly
inhibition at 1 µM [3]: 76%
inhibition at 0.1 µM [3]: 37%

CC1=C(C)C(=O)C(C(CCCCCC(=O)O)c2cccnc2)=C(C)C1=O (centres unmarked) [Compound No. 13, 7-(3-pyridyl)-7-(3,5,6-trimethyl-1,4-benzoquinon-2-yl)heptanoic acid]
Inhibition of contraction of rabbit aorta strip due to U-46619 ([4]; 10^-5 M): 86 ± 8%
Inhibition of contraction of rabbit aorta strip due to U-46619 ([4]; 10^-5 M, listed as Compound No.13): 86%
TXA2 receptor antagonism (in words) ([4]; 10^-6 M and 10^-5 M): remarkable TXA2 receptor antagonism
Inhibition of contraction of rabbit aorta strip due to U-46619 ([4]; 10^-6 M): 14 ± 4%
Inhibition of contraction of rabbit aorta strip due to U-46619 ([4]; 10^-6 M, listed as Compound No.13): 14%
inhibition at 1 µM [3]: 87%
inhibition at 0.1 µM [3]: 48%
